Test results reported in US10131652B2, “Pyrimidinyloxy benzene derivatives as herbicides” (E. I. DU PONT DE NEMOURS AND COMPANY, priority 2014, dated 2018).
Where two headings read alike, the source gives them in different places.

Columns and labels:
Assay type in all cases: in vivo
[1] = system: downy bromegrass (Bromus tectorum); assay: Test E pre-/postemergence plant response; settings: scale 0 to 100, read-out: Plant response rating, Bromegrass, Downy; for pest or weed control at 16 g/ha: 16 g ai/ha; for pest or weed control at 31 g/ha: 31 g ai/ha; for pest or weed control at 62 g/ha: 62 g ai/ha; for pest or weed control at 125 g/ha: 125 g ai/ha
In short: (§1)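 Pre-emergence: seeds sown in silt loam soil and sprayed with test chemicals in a non-phytotoxic solvent/surfactant mix. Post-emergence: plants at 2–18 cm (1- to 4-leaf stage) in peat/vermiculite medium treated with the same formulation. Visual rating versus controls after 7–21 days, 0 (no effect) to 100 (complete control).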

[2] = system: blackgrass (Alopecurus myosuroides); assay: Test E pre-/postemergence plant response; settings: scale 0 to 100, read-out: Plant response rating, Blackgrass; for pest or weed control at 16 g/ha: 16 g ai/ha; for pest or weed control at 31 g/ha: 31 g ai/ha; for pest or weed control at 62 g/ha: 62 g ai/ha; for pest or weed control at 125 g/ha: 125 g ai/ha
In short: as §1

[3] = system: winter barley (Hordeum vulgare); assay: Test E pre-/postemergence plant response; settings: scale 0 to 100, read-out: Plant response rating, Barley, Winter; for plant injury at 16 g/ha: 16 g ai/ha; for plant injury at 31 g/ha: 31 g ai/ha; for plant injury at 62 g/ha: 62 g ai/ha; for plant injury at 125 g/ha: 125 g ai/ha
In short: as §1

[4] = system: lambsquarters (Chenopodium album); assay: Test E pre-/postemergence plant response; settings: scale 0 to 100, read-out: Plant response rating, Lambsquarters; for pest or weed control at 16 g/ha: 16 g ai/ha; for pest or weed control at 31 g/ha: 31 g ai/ha; for pest or weed control at 62 g/ha: 62 g ai/ha; for pest or weed control at 125 g/ha: 125 g ai/ha
In short: as §1

[5] = system: bluegrass (annual bluegrass, Poa annua); assay: Test E pre-/postemergence plant response; settings: scale 0 to 100, read-out: Plant response rating, Bluegrass; for pest or weed control at 16 g/ha: 16 g ai/ha; for pest or weed control at 31 g/ha: 31 g ai/ha; for pest or weed control at 62 g/ha: 62 g ai/ha; for pest or weed control at 125 g/ha: 125 g ai/ha
In short: as §1

[6] = system: galium (catchweed bedstraw, Galium aparine); assay: Test E pre-/postemergence plant response; settings: scale 0 to 100, read-out: Plant response rating, Galium; for pest or weed control at 16 g/ha: 16 g ai/ha; for pest or weed control at 31 g/ha: 31 g ai/ha; for pest or weed control at 62 g/ha: 62 g ai/ha; for pest or weed control at 125 g/ha: 125 g ai/ha
In short: as §1

[7] = system: deadnettle (henbit deadnettle, Lamium amplexicaule); assay: Test E pre-/postemergence plant response; settings: scale 0 to 100, read-out: Plant response rating, Deadnettle; for pest or weed control at 16 g/ha: 16 g ai/ha; for pest or weed control at 31 g/ha: 31 g ai/ha; for pest or weed control at 62 g/ha: 62 g ai/ha; for pest or weed control at 125 g/ha: 125 g ai/ha
In short: as §1

[8] = system: chamomile (scentless chamomile, Matricaria inodora); assay: Test E pre-/postemergence plant response; settings: Tripleurospermum inodorum, post-emergence, Postemergence, scale 0 to 100, read-out: Plant response rating, Chamomile
In short: as §1

Horseweed = assay: Test F postemergence plant response; settings: scale 0 to 100

## Fc1cccc(Oc2ncc(Cl)cn2)c1-c1cc(C(F)F)on1 [Compound 55, 5-chloro-2-[2-[5-(difluoromethyl)-3-isoxazolyl]-3-fluorophenoxy]pyrimidine]
[1]; post-emergence, Postemergence
  pest or weed control at 16 g/ha: 5%
  pest or weed control at 31 g/ha: 0%
  pest or weed control at 62 g/ha: 10%
  pest or weed control at 125 g/ha: 10%
[1]; pre-emergence, Preemergence
  pest or weed control at 16 g/ha: 20%
  pest or weed control at 31 g/ha: 20%
  pest or weed control at 62 g/ha: 55%
  pest or weed control at 125 g/ha: 55%
[2]; post-emergence, Postemergence
  pest or weed control at 16 g/ha: 5%
  pest or weed control at 31 g/ha: 10%
  pest or weed control at 62 g/ha: 20%
  pest or weed control at 125 g/ha: 40%
[2]; pre-emergence, Preemergence
  pest or weed control at 16 g/ha: 0%
  pest or weed control at 31 g/ha: 15%
  pest or weed control at 62 g/ha: 60%
  pest or weed control at 125 g/ha: 100%
[3]; post-emergence, Postemergence
  plant injury at 16 g/ha: 0%
  plant injury at 31 g/ha: 0%
  plant injury at 62 g/ha: 5%
  plant injury at 125 g/ha: 10%
[3]; pre-emergence, Preemergence
  plant injury at 16 g/ha: 5%
  plant injury at 31 g/ha: 10%
  plant injury at 62 g/ha: 10%
  plant injury at 125 g/ha: 35%
[4]; post-emergence, Postemergence
  pest or weed control at 16 g/ha: 75%
  pest or weed control at 31 g/ha: 80%
  pest or weed control at 62 g/ha: 85%
  pest or weed control at 125 g/ha: 90%
[4]; pre-emergence, Preemergence
  pest or weed control at 16 g/ha: 95%
  pest or weed control at 31 g/ha: 100%
  pest or weed control at 62 g/ha: 100%
  pest or weed control at 125 g/ha: 100%
[5]; post-emergence, Postemergence
  pest or weed control at 16 g/ha: 0%
  pest or weed control at 31 g/ha: 0%
  pest or weed control at 62 g/ha: 15%
  pest or weed control at 125 g/ha: 25%
[5]; pre-emergence, Preemergence
  pest or weed control at 16 g/ha: 0%
  pest or weed control at 31 g/ha: 10%
  pest or weed control at 62 g/ha: 10%
  pest or weed control at 125 g/ha: 100%
[6]; post-emergence, Postemergence
  pest or weed control at 16 g/ha: 70%
  pest or weed control at 31 g/ha: 85%
  pest or weed control at 62 g/ha: 80%
  pest or weed control at 125 g/ha: 85%
[6]; pre-emergence, Preemergence
  pest or weed control at 16 g/ha: 10%
  pest or weed control at 31 g/ha: 100%
  pest or weed control at 62 g/ha: 70%
  pest or weed control at 125 g/ha: 100%
[7]; post-emergence, Postemergence
  pest or weed control at 16 g/ha: 20%
  pest or weed control at 31 g/ha: 50%
  pest or weed control at 62 g/ha: 70%
  pest or weed control at 125 g/ha: 80%
[7]; pre-emergence, Preemergence
  pest or weed control at 16 g/ha: 0%
  pest or weed control at 31 g/ha: 0%
  pest or weed control at 62 g/ha: 0%
  pest or weed control at 125 g/ha: 0%
[8]; 16 g ai/ha
  pest or weed control at 16 g/ha: 5%
[8]; 31 g ai/ha
  pest or weed control at 31 g/ha: 5%
[8]; 62 g ai/ha
  pest or weed control at 62 g/ha: 5%
[8]; 125 g ai/ha
  pest or weed control at 125 g/ha: 5%
Horseweed; 31 g ai/ha Postemergence
  Plant response rating, Horseweed: 15
Horseweed; 62 g ai/ha Postemergence
  Plant response rating, Horseweed: 20
